System: keratinocytes
Assay: Active photoprotection against UVA oxidative stress induced on keratinocytes (DCFH-DA fluorescent probe)
Type: cell-based
Conditions: for % of fluorescence relative to the control cells exposed to UVA, TEST 1 / % of fluorescence relative to the control cells exposed to UVA, TEST 2: 24 hours preincubation, DCF fluorescence after UVA; for % of fluorescence relative to the control cells exposed to UVA, Mean: mean of TEST 1 and TEST 2
Experimental: The photoprotection evaluation technique is performed according to a well-known method (J. of Photochemistry and Photobiology B: Biology 57 (2000) 102–112 TOBI et al: Glutathione modulates the level of free radicals produced in UVA irradiated cells). This technique uses a fluorescent probe, a marker of intracellular global oxidative stress, 2′,7′-dichlorofluoresceine diacetate (DCFH-DA).
The use of DCFH-DA as an oxidative stress marker is based on its physicochemical properties. It is a nonionic apolar molecular capable of diffusing across cell membranes. Once inside the cell, DCFH-DA is hydrolysed by intracellular esterases to a non-fluorescent compound: DCFH or […]. In the presence of activated oxygen species, DCFH is rapidly oxidized to a highly fluorescent compound: DCF or 2,7-dichlorofluoresceine.
At confluence, the keratinocytes are incubated in the presence of a compound of formula (I) for 24 hours at 37° C., 5% CO2, in the culture medium, according to a dose effect (3 concentrations).
The keratinocytes, pretreated with a compound of formula (I), are rinsed and then incubated in the presence of DCFH-DA in the dark.
After this incubation, the DCFH-DA solution is removed and the cells are then exposed to UVA.
Comment: a non-exposed control plate is stored in the dark, at room temperature.
The fluorescence of the DCF is evaluated immediately after the exposure to UVA, via spectrofluorimetry (excitation: 480 nm; emission: 530 nm).
The results are expressed as % of fluorescence relative to the control cells exposed to UVA: […]

With `O=C1NCC(=O)N2C(=O)SCC12` (stereo not shown) [Compound 2, Tetrahydrothiazolo[3,4-a]pyrazine-3,5,8-trione] the “% of fluorescence relative to the control cells exposed to UVA, TEST 1” value (compound at 0.05 mM) was 98%, the “% of fluorescence relative to the control cells exposed to UVA, TEST 2” value (compound at 0.05 mM) was 86% and the “% of fluorescence relative to the control cells exposed to UVA, Mean” value (compound at 0.05 mM) was 92%. The “% of fluorescence relative to the control cells exposed to UVA, TEST 1” value (compound at 0.5 mM) was 79%, the “% of fluorescence relative to the control cells exposed to UVA, TEST 2” value (compound at 0.5 mM) was 74% and the “% of fluorescence relative to the control cells exposed to UVA, Mean” value (compound at 0.5 mM) was 76.5%. For the same molecule, the “% of fluorescence relative to the control cells exposed to UVA, TEST 1” value (compound at 5 mM) was 69%, the “% of fluorescence relative to the control cells exposed to UVA, TEST 2” value (compound at 5 mM) was 58% and the “reduction of fluorescence (optimum efficacy)” value (compound at 5 mM, UVA oxidative stress) was “about 36%”. The “% of fluorescence relative to the control cells exposed to UVA, Mean” value (compound at 5 mM) was 63.5%.
